Results as given in patent publication US20120101169A1, “METHODS OF PROVIDING ANTICOAGULATION EFFECTS IN SUBJECTS” (Penwest Pharmaceuticals Co., priority 2010, published 2012).
Several values for one entry are separate records, joined by “and”; a condition that tells them apart may be missing. Equal entries are not always repeated. Where two headings read alike, the source gives them in different places.

Key:
[1] = tested on: coagulation tests (PT, INR, PTT); experiment: Coagulation tests (PT, INR, PTT) after single ATQ dose (Example 4); settings: for Highest postdose PT value above ULN: one subject
From the text: (§2) The INR is the ratio of a subject's prothombin time (PTtest) to the prothombin time of a normal (control) sample (PTnormal), raised to the power of the International Sensitivity Index (ISI) value for the analytical system:
“Prothrombin time” or “PT” refers to the time it takes the blood plasma of a subject to clot after the addition of a thromboplastin reagent. “Thromboplastin reagent” refers to a standardized commercial product which is used in blood coagulation assays to measure blood clotting time. Non-limiting examples of thromboplastin reagents include RecombiPlasTin (Beckman Coulter, Brea, Calif.), INNOVN® and THROMBOREL® (Dade Behring, Liederbach, Germany).
(§3) As used herein, the terms “activated partial thromboplastin time” or “aPTT” or “partial thromboplastin time” or “PTT,” refer to the time it takes the blood plasma of a subject to clot after the addition of a phospholipid (i.e., partial thromboplastin) and calcium chloride. Non-limiting examples of phospholipids for use in determining aPTT include silica and kaolin.

[2] = tested on: coagulation (PT, INR, aPTT); experiment: Basic coagulation panel (PT, INR, aPTT) and coagulation safety (Example 5)
From the text: as §2
“Prothrombin time” or “PT” refers to the time it takes the blood plasma of a subject to clot after the addition of a thromboplastin reagent. “Thromboplastin reagent” refers to a standardized commercial product which is used in blood coagulation assays to measure blood clotting time.
as §3
INR grades are used to rank the severity thresholds for the coagulation factors relative to the upper normal of limit values (ULN). The higher the INR grade the higher the severity. […] As used herein, “Grade 1” refers to an INR value of 1.1 to 1.65 in a subject. As used herein, “Grade 2” refers to an INR value of 1.65 to 2.2 in a subject. As used herein, “Grade 3” refers to an INR value greater than 2.2 in a subject.
Thus both the basic coagulation panel assessments including PT, INR, aPTT, and platelet counts were performed at screening, on Day −1, and extensively throughout the treatment period to assess the potential effect of ATQ on coagulation.
This section covers the PD effect of ATQ on the coagulation parameters PT, INR, and aPPT and the relative time course of drug induced changes in these parameters.

[3] = Food-effect and regimen pharmacokinetics, single 3-g daily ATQ dose (Example 5 Part 1); type: in vivo, human; settings: for Cmax / AUC(0-inf) / Vd/F / half-life / Tmax: male, human, plasma, oral, 3 g; for Vd/F: read-out: Vz/F
Protocol: The study was conducted in 2 parts. Part 1 was conducted in healthy male subjects only while Part 2 was conducted in healthy male and female subjects. The intent of this study part was to optimize the dosage regimen and diet for the multiple-dose safety and tolerance Part 2 of the study. All plasma ATQ concentrations were determined using a GLP validated bioanalytical method. ATQ was administered as an oral solution in oil (0.49 g/mL). The placebo solution consisted of olive oil alone.
The dose of 3-g ATQ was selected for Part 1 as it most likely represented the high end of the exposure spectrum selected for the subsequent tolerance trial. For Part 1, serial blood samples for the measurement of the plasma levels of ATQ were collected prior to and following each oral dose administered on Day 1 through 36 hours following the morning dose on Day 1 (or 24 hours post-evening dose).

[4] = tested on: factor X; experiment: Extended coagulation biomarker panel: factor X; type: in vivo, human
From the text: (§1) In Part 1 the extended panel was collected at screening and at check-in (Day −1) and Day 2 of each period unless the study results warranted a different sampling schedule. In Part 2, the same of the exploratory coagulation biomarkers were collected at screening, check-in, Day 4, and Day 8 in Cohorts 1 and 2, or at check-in, Day 7, and Day 14 in Cohorts 3 and 4 with the following exception: in Cohorts 3 and 4, platelet function was collected at check-in only or when medically indicated.

[5] = tested on: factor II (prothrombin); experiment: Extended coagulation biomarker panel: factor II; type: in vivo, human; settings: Part 2, 0.67 g TID, Day 4
From the text: as §1

[6] = tested on: protein S; experiment: Extended coagulation biomarker panel: protein S; type: in vivo, human; settings: Part 2, 0.67 g TID, Day 4
From the text: as §1

[7] = tested on: protein C; experiment: Extended coagulation biomarker panel: protein C; type: in vivo, human; settings: Part 2, 0.67 g TID, Day 4
From the text: as §1

[8] = tested on: antithrombin (AT); experiment: Extended coagulation biomarker panel: antithrombin; set-up: species or system human; settings: in vivo
From the text: as §1

[9] = Cohort 5 (6-g ATQ), subject with highest PT
[10] = Cohort 6 (2.2-g as 0.735-g TID)
[11] = of the 48 subjects who received ATQ
[12] = 3-g BID, high-fat meal, mean, N = 6
[13] = 3-g BID, standard meal, mean, N = 6
[14] = 3-g TID, high-fat meal, mean, N = 5
[15] = 3-g TID, standard meal, mean, N = 6

Q: What does the source list for CC1=C(C)C(=O)C(CC[C@](C)(O)CCC[C@H](C)CCC[C@H](C)CCCC(C)C)=C(C)C1=O [ATQ, alpha-tocopherolquinone]?
A: INR change ([1]; 2 g administered as a single entity (2 g QD)): NO INR change; Subjects with 24-hour postdose PT value above ULN ([1]; Cohort 3 (1-g ATQ)): 2 of 8; 24-hour postdose PT value above ULN ([1]; Cohort 3 (1-g ATQ), 2 of 8 subjects): 5.2%; Subjects with postdose PT values above ULN ([1]; Cohort 5 (6-g ATQ)): 5 of 8; Highest postdose PT value above ULN ([1]; Cohort 5 (6-g ATQ)): 39.1%; Increase in INR above ULN [1, 9]: 23.1%; Increase in PTT above ULN [1, 9]: 5.6%; Subjects with postdose PT values above ULN [1, 10]: 4 of 8; Highest postdose PT value above ULN [1, 10]: 20.9%; Increase in INR above ULN ([1]; Cohort 6 (2.2-g as 0.735-g TID), subject with highest PT): 7.7%; Subjects with a 24-hour postdose INR value above ULN [1, 11]: 2 subjects; Subjects with a 24-hour postdose PTT value above ULN [1, 11]: 1 subject; Subjects with postdose PT values above the upper limit of normal (ULN) [1, 11]: 11 subjects; Time for INR and PTT values to return to normal range ([1]; postdose, all subjects): ≤ 48 h; Effect on the coagulation tests, especially PT and INR ([1]; single doses, 48 subjects who received ATQ): slight but not clinically significant effect; Reversibility of changes in hemostasis ([1]; upon cessation of the treatment): fully reversible; INR values reached by individual subjects ([2]; 0.67 g TID group, 3 of 8 subjects): 2.3 and 3.0 (2×); Subjects with that grade of INR increase ([2]; 0.75 g BID, Grade 2): 2 of 6; Subjects with that grade of INR increase ([2]; 2-g/day (0.67 g TID), Grade 3, active-treated): 3 of 8; Effect on coagulation (INR, PT, aPTT) ([2]; 3-g over 1 day, 0.33 g TID and 0.67 g TID or 0.75 g BID): clear effect on coagulation; Effect on coagulation during prolonged dosing ([2]; 14 days at 0.5 g and 0.75 g BID): appeared to slowly abate while still on drug beyond 8 days; Subjects with clinical coagulation laboratory values greater than 1.5 times the upper limit of normal (value greater than 1.65) ([2]; Part 1): 5 subjects; Subjects with clinically relevant changes in clinical laboratory values related to treatment-emergent adverse events ([2]; Part 1): Twelve; Active-treated subjects with clinically relevant changes in clinical laboratory values related to treatment-emergent adverse events ([2]; b179, part not stated): Twenty-five; Subjects with study-drug related clinical coagulation laboratory values greater than 1.5 times the upper limit of normal (value greater than 1.65) ([2]; b179, part not stated): 11 subjects; Onset of the effect on coagulation ([2]; following the first (high dose) of ATQ, Part 1): 18 h; Time course of the effect on coagulation ([2]; initial increase through Day 4, second peak by Day 7 to 8): biphasic; Onset of the effect on coagulation ([2]; multiple dose administration): ≤ 48 h; Time at which most subjects approach baseline coagulation values ([2]; post last dose): 48 h; Subjects with that grade of INR increase ([2]; single daily doses of 3-g ATQ, Grade 2): 4 of 12; CLpo [3, 12]: 21.4 L/h; CLpo [3, 13]: 22.0 L/h; CLpo [3, 14]: 18.2 L/h; CLpo [3, 15]: 18.1 L/h; Overall exposure (AUC) BID versus TID ([3]; 3-g dose as 2×1.5-g every 12 hours or 3×1.0-g every 6 hours): similar; Cmax ([3]; 3-g BID (2×1.5 g 12 h apart), high-fat meal, baseline-adjusted, mean, N = 6, read-out: Cmax): 13400 ng/mL; Cmax ([3]; 3-g BID (2×1.5 g 12 h apart), standard meal, baseline-adjusted, mean, N = 6, read-out: Cmax): 15300 ng/mL; AUC(0-inf) ([3]; 3-g BID, high-fat meal, baseline-adjusted, mean, N = 6): 152 µg·h/mL; Vd/F [3, 12]: 132 L; half-life ([3]; 3-g BID, high-fat meal, mean, N = 6, read-out: t1/2 (converted)): 4.2 h; Tmax ([3]; 3-g BID, high-fat meal, median, N = 6, read-out: Tmax): 10.5 h; AUC(0-inf) ([3]; 3-g BID, standard meal, baseline-adjusted, mean, N = 6): 157 µg·h/mL; Vd/F [3, 13]: 143 L; half-life ([3]; 3-g BID, standard meal, mean, N = 6, read-out: t1/2 (converted)): 4.34 h; Tmax ([3]; 3-g BID, standard meal, median, N = 6, read-out: Tmax): 6 h; Cmax ([3]; 3-g TID (3×1.0 g 6 h apart), high-fat meal, baseline-adjusted, mean, N = 5, read-out: Cmax): 14200 ng/mL; Cmax ([3]; 3-g TID (3×1.0 g 6 h apart), standard meal, baseline-adjusted, mean, N = 6, read-out: Cmax): 15000 ng/mL; AUC(0-inf) ([3]; 3-g TID, high-fat meal, baseline-adjusted, mean, N = 5): 178 µg·h/mL; Vd/F [3, 14]: 122 L; half-life ([3]; 3-g TID, high-fat meal, mean, N = 5, read-out: t1/2 (converted)): 4.88 h; Tmax ([3]; 3-g TID, high-fat meal, median, N = 5, read-out: Tmax): 17.5 h; AUC(0-inf) ([3]; 3-g TID, standard meal, baseline-adjusted, mean, N = 6): 169 µg·h/mL; Vd/F [3, 15]: 139 L; half-life ([3]; 3-g TID, standard meal, mean, N = 6, read-out: t1/2 (converted)): 5.37 h; Tmax ([3]; 3-g TID, standard meal, median, N = 6, read-out: Tmax): 12.7 h; Cmax ([3]; single 3-g daily dose, across treatments, read-out: mean Cmax range): 13400 to 15300 ng/mL; half-life ([3]; single 3-g daily dose, across treatments, read-out: mean t1/2 values (range across treatments)): 4.2 to 5.37 h; Tmax ([3]; single 3-g daily dose, across treatments, read-out: median Tmax (range across treatments)): 6 to 17.5 h; ATQ exposure (Cmax and AUC) high-fat versus standard meal ([3]; single 3-g daily dose): no difference; Decrease from baseline activity of factor X ([4]; Part 2, 0.67 g TID, Day 4): 62%; Decrease from baseline activity of factor X ([4]; Part 2, Day 14): 68%; Decrease from baseline activity of factor II [5]: 51%; Decrease from baseline activity of protein S [6]: 56%; Protein C activity [7]: 109%; Effect on the activity of AT [8]: did not appear to affect
